Test results reported in patent US12606541B2, “PPARg modulators and methods of use” (Eisai R&D Management Co., Ltd., priority 2020, dated 2026).

The compounds below were run against T1, His6-TEV-PPARγ-(234-505) (Homo sapiens, UniProt P37231) (assay: TR-FRET Assay to Measure Co-R Peptide Recruitment to PPARγ). Details: Co-R peptide recruitment to PPARγ; read-out: TR-FRET AC50.
T1 construct: The His6-TEV-PPARγ-(234-505) protein for assay was expressed and purified; TEV cleavage site (N); made in house
T1 sequence (P37231 234-505): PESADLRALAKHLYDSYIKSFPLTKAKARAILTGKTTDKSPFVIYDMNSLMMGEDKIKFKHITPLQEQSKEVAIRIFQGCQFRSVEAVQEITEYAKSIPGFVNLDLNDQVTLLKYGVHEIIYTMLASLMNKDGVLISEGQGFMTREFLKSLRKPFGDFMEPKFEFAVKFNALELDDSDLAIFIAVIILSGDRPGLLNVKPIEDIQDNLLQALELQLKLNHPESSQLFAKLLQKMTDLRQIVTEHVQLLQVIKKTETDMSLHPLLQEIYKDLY
Type: biochemical
How it was run: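 His-tagged PPARγ (or controls) was preincubated with compound for 20 minutes at room temperature, then 5 nM anti-His terbium antibody and 200 nM FITC-labeled SMRT-ID2 corepressor peptide (final) were added for a further hour. TR-FRET signal was normalized to percent response using 500 nM T0070907 and DMSO controls.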

Row | SMILES | AC50 [nM]
1 | COc1cc(-c2cc(C(=O)N3CCC(C(=O)NCc4ccc5[nH]ncc5c4)CC3)n[nH]2)c(Cl)cn1 [1-[5-(5-chloro-2-methoxypyridin-4-yl)-1H-pyrazole-3-carbonyl]-N-[(1H-indazol-5-yl)methyl]piperidine-4-carboxamide] | > 1000
2 | COc1cc(-c2cc(C(=O)N3CCC(C(=O)NCc4c(F)ccc(C)c4F)CC3)n[nH]2)c(Cl)cn1 [1-[5-(5-chloro-2-methoxypyridin-4-yl)-1H-pyrazole-3-carbonyl]-N-[(2,6-difluoro-3-methylphenyl)methyl]piperidine-4-carboxamide] | > 1000
3 | COc1cc(-c2cc(C(=O)N3CCC(C(=O)NCc4ccccc4C#N)CC3)n[nH]2)c(Cl)cn1 [1-[5-(5-chloro-2-methoxypyridin-4-yl)-1H-pyrazole-3-carbonyl]-N-[(2-cyanophenyl)methyl]piperidine-4-carboxamide] | > 1000
4 | COc1cc(-c2cc(C(=O)N3CCC(C(=O)NCC4(C)OCCO4)CC3)n[nH]2)c(Cl)cn1 [1-[5-(5-chloro-2-methoxypyridin-4-yl)-1H-pyrazole-3-carbonyl]-N-[(2-methyl-1,3-dioxolan-2-yl)methyl]piperidine-4-carboxamide] | > 1000
5 | COc1cc(-c2cc(C(=O)N3CCC(C(=O)NCc4ccc5c(c4)CN(C)C5)CC3)n[nH]2)c(Cl)cn1 [1-[5-(5-chloro-2-methoxypyridin-4-yl)-1H-pyrazole-3-carbonyl]-N-[(2-methyl-2,3-dihydro-1H-isoindol-5-yl)methyl]piperidine-4-carboxamide] | > 1000
6 | COc1cc(-c2cc(C(=O)N3CCC(C(=O)NCC4(C)CCCO4)CC3)n[nH]2)c(Cl)cn1 (stereo not shown) [1-[5-(5-chloro-2-methoxypyridin-4-yl)-1H-pyrazole-3-carbonyl]-N-[(2-methyloxolan-2-yl)methyl]piperidine-4-carboxamide] | > 1000
7 | COc1cc(-c2cc(C(=O)N3CCC(C(=O)N[C@@H]4C[C@@H](C)Oc5ccccc54)CC3)n[nH]2)c(Cl)cn1 [1-[5-(5-chloro-2-methoxypyridin-4-yl)-1H-pyrazole-3-carbonyl]-N-[(2R,4R)-2-methyl-3,4-dihydro-2H-1-benzopyran-4-yl]piperidine-4-carboxamide] | > 1000
8 | COc1cc(-c2cc(C(=O)N3CCC(C(=O)NCC4OCC4(C)C)CC3)n[nH]2)c(Cl)cn1 (stereo not shown) [1-[5-(5-chloro-2-methoxypyridin-4-yl)-1H-pyrazole-3-carbonyl]-N-[(3,3-dimethyloxetan-2-yl)methyl]piperidine-4-carboxamide] | > 1000
9 | COc1cc(-c2cc(C(=O)N3CCC(OCC(F)(F)F)(C(=O)NCc4cccc(Cl)c4)CC3)n[nH]2)c(Cl)cn1 [1-[5-(5-chloro-2-methoxypyridin-4-yl)-1H-pyrazole-3-carbonyl]-N-[(3-chlorophenyl)methyl]-4-(2,2,2-trifluoroethoxy)piperidine-4-carboxamide] | > 1000
10 | COc1cc(-c2cc(C(=O)N3CCC(CO)(C(=O)NCc4cccc(Cl)c4)CC3)n[nH]2)c(Cl)cn1 [1-[5-(5-chloro-2-methoxypyridin-4-yl)-1H-pyrazole-3-carbonyl]-N-[(3-chlorophenyl)methyl]-4-(hydroxymethyl)piperidine-4-carboxamide] | > 1000
11 | COCC1(C(=O)NCc2cccc(Cl)c2)CCN(C(=O)c2cc(-c3cc(OC)ncc3Cl)[nH]n2)CC1 [1-[5-(5-chloro-2-methoxypyridin-4-yl)-1H-pyrazole-3-carbonyl]-N-[(3-chlorophenyl)methyl]-4-(methoxymethyl)piperidine-4-carboxamide] | > 1000
12 | COc1cc(-c2cc(C(=O)N3CCC(C#N)(C(=O)NCc4cccc(Cl)c4)CC3)n[nH]2)c(Cl)cn1 [1-[5-(5-chloro-2-methoxypyridin-4-yl)-1H-pyrazole-3-carbonyl]-N-[(3-chlorophenyl)methyl]-4-cyanopiperidine-4-carboxamide] | > 1000
13 | COc1cc(-c2cc(C(=O)N3CCC(OC)(C(=O)NCc4cccc(Cl)c4)CC3)n[nH]2)c(Cl)cn1 [1-[5-(5-chloro-2-methoxypyridin-4-yl)-1H-pyrazole-3-carbonyl]-N-[(3-chlorophenyl)methyl]-4-methoxypiperidine-4-carboxamide] | > 1000
